Results from US5834514A, “Halomethyl amides as IL-1β protease inhibitors” (Vertex Pharmaceuticals, Incorporated, priority 1996, dated 1998).

How the values were obtained:
IL-1β protease = molecular target: T1, IL-1β protease (Homo sapiens, UniProt P29466); test: In vitro IL-1β protease inhibition (HPLC, TRITC-AYVHDAPVRS-NH2 substrate); assay type: biochemical; conditions: 15 min preincubation, 60 min at 37° C., 67 μM substrate
T1 sequence (P29466 120-297 limits assumed): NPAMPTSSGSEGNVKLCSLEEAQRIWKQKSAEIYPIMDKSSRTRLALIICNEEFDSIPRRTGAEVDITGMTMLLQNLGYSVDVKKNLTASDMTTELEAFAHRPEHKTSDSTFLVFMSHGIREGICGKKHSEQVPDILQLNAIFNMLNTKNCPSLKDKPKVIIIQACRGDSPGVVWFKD
Protocol: Compounds of the present invention were tested for IL-1β protease inhibition activity according to the following protocols:
Partially purified IL-1β protease is stored at -80° C., thawed on ice, and preincubated for 10 minutes at 37° C. with 2.5 mM dithiothreitol in a buffer solution containing 10 mM Tris-HCl (pH 8.0) and 25% (v/w) glycerol. Inhibitors are prepared as stock solutions in dimethyl sulfoxide (DMSO). The protease is preincubated with inhibitor in a volume of 20 μL in a 1.5 mL polypropylene microcentrifuge tube for 15 minutes at 37° C. The volume of compound added to the assay is adjusted to yield a DMSO concentration in the preincubation of <15% (v/v). The enzyme assay is then initiated by the addition of substrate (TRITC-AYVHDAPVRS-NH2) (SEQ I.D. No. 1) [drawing 5] to yield a final concentration of 67 μM in a final volume of 30 μL. The reaction are carried out for 60 minutes at 37° C. in the dark and are terminated by the addition of […] (TFA). Following the addition of 115 μL of 0.1 % TFA, the samples are analyzed by high pressure liquid chromatography using a reverse phase (C18) column and elution with an acetonitrile/water/TFA gradient. Substrate and product are monitored by their absorbance at 550 nm and elute at 4.2 and 5.2 minutes, respectively.

[1] = system: release of mature IL-1β, human monocytes; test: "In vivo" human monocyte pulse chase assay, inhibition of release of mature IL-1β; assay type: cell-based; conditions: fixed S. aureus stimulation, 2-3 donors
Protocol: In vivo inhibition (IC50) was determined as follows:
Human monocytes were isolated from heparinized leukopheresis units obtained through Biological Specialty Corporation (Lansdale, Pa.). Monocytes were purified by Ficoll-Hupaque (Pharmacia Fine Chemicals, Piscataway, N.J.) gradient centrifugation and more than 95% pure monocyte populations obtained by centrifugal elutriation. The assay was performed on duplicate samples of freshly isolated human monocytes, cultured in suspension at 37° C. and rotated gently in conical bottom polypropylene tubes (Sardstedt Inc., Princeton, N.J.). Human monocytes at a concentration of 5×10^6 cells/mL were resuspended in 1 mL of RPMI 1640 (a common tissue buffer from M.A. Bioproducts, Walkersville, Md.) containing 1% fetal calf serum (FCS) (HyClone, Logan, Utah) and 50 μg/mL gentamycin (Gibco, Grand Island, N.Y.). The cells were treated either with a compound of the invention (i.e. test compound) or with a non-inhibitor (control compound, typically 0.03% DMSO) for 15 minutes and then activated with 0.01% fixed Staphylococcus aureus (The Enzyme Center, Malden, Mass.) for 1 hour. […]
In the monocyte pulse chase assay, each test parameter was run in duplicate. […] When test compounds were evaluated, the percent inhibition of release of mature IL-1β was calculated as follows: […]

[2] = system: Acute Myelogenous Leukemia Blast; conditions: AML; cited from earlier work
colon = conditions: ulcerative colitis model; cited from earlier work
[3] = system: Patients with Rheumatoid Arthritis; conditions: small open-label human trial; cited from earlier work
rats = conditions: PG-APS model of arthritis in rats; cited from earlier work
[4] = system: chronic myelogenous leukemia cells; conditions: cells removed from leukemia patients (CML); cited from earlier work

Molecule | IC50 (IL-1β protease) [µM] | IC50 [1] [µM] | inhibition of Acute Myelogenous Leukemia Blast Proliferation [2] | tissue necrosis and number of inflammatory cells in the colon (colon) | efficacy in Rheumatoid Arthritis trial [3] | joint swelling (rats) | inhibition of colony growth [4]
C=CCN(Cc1ccc(Cl)cc1Cl)C(=O)CCl [Example 1] | ≤ 1 | < 10 |  |  |  |  | 
IL-1 ra: naturally occurring IL-1β receptor antagonist |  |  | Inhibition of Acute Myelogenous Leukemia Blast Proliferation | reduced tissue necrosis and the number of inflammatory cells in the colon | shows efficacy | supresses joint swelling | inhibit colony growth
